{"source": "patent US5830994A", "about": "“Peptide derivatives of alpha-MSH and their application” (Institut Europeen De Biologie Cellulaire, priority 1993, dated 1998)", "key": {"TNF-α": {"test_system": "TNF-α", "experiment": "Inhibition of TNF-α induced by LPS in mice (DAYNES technique), serum ELISA", "assay_type": "in vivo", "description": "This anti-inflammatory activity was complemented by a study of the immunosuppressive activity of PIV against Tumor Necrosis Factor-α.\nInhibition of the activity of TNF-α by the Peptide PIV\nThe DAYNES techniques described in Example 8 are used.\n40 μg of PIV in 0.2 ml of physiological saline--that is to say 200 μg/ml\n25 μg of PIV in 0.2 ml of physiological saline--that is to say 125 μg/ml\n10 μg of PIV in 0.2 ml of physiological saline--that is to say 50 μg/ml\nIt was carried out on mice separated into 5 batches of 5 animals\nThe animals in the control batches receive an injection of 0.2 ml of physiological saline intravenously. The animals in the PIV batches receive an injection of the product at various dosages intravenously. (Caudal vein)\nImmediately after the treatment of the mice, a sublethal dose of LPS (1.2 mg in 0.2 ml of physiological saline) is intraperitoneally injected into each animal in the batches and positive control.\nNinety minutes later, all the mice are punctured through the retroorbital sinuses on dry tubes. As soon as the blood coagulates, the clot is detached. The blood is centrifuged for 10 minutes at 10° C. at 1800 g.\nThe sera once collected are frozen at -25° C.\nThe TNF-α contained in these sera is assayed 24 hours after the sampling with the murine TNF-α ELISA assay Kit (ref. 1509-00 GENZYME)\nRapid description of the Kit: the method used for this assay is of the sandwich type.\nA first anti-murine TNF-A monoclonal antibody is used.\nThe samples are then deposited and then a second anti-TNF-α goat antibody is caused to react.\nThe colored reaction uses o-phenylenediamine (OPD).\nThe reading is made at 492 nm with a plate reader (TITERTEK MKII MCC 340)"}, "[1]": {"test_system": "PGE2 production by MRC5 fibroblasts stimulated by IL1", "experiment": "PGE2 production by fibroblasts stimulated by IL1 (RIA)", "assay_type": "cell-based, human", "conditions": "for % inhibition (PGE2) / PGE2: IL1:5 ng", "description": "2-1 Culture of embryonic pulmonary fibroplasts [sic] of human origin:\nWe chose to use the strain ATCC MRC5 maintained in the laboratory continuously and already tested by Cannon et al. (J. Immunol., 1986).\nAfter subculturing, the fibroplasts [sic] are cultured in microwells (24-well plate of 2 cm2, Falcon). The innoculum is 30 000 cells per well; the nutrient medium used is composed of RPMI 1640 (90%) and of complement-free fetal calf serum (FCS, 10%). The medium is changed every two days until the cells become confluent.\nThe monocell layers thus obtained are washed and preincubated for 24 hours in fresh medium containing only 1% of FCS. […] After incubating for 20 minutes in the presence of these compounds, human recombinant IL1 (Tebu, France) at a concentration of 5, 2.5 or 0.5 ng/ml of medium is placed in contact with cells for 18 hours.\nAt the end of this incubation, the supernatants are collected and frozen at -80° C. until the analysis is carried out. The monocell layers are fixed with methanol.\nThe RIA assay is carried out according to the method described by Dray et al. (Europ. J. Invest. 1975). 3 series of experiments, in duplicate, were carried out for each concentration of product studied and for the controls. The results are expressed in pg/μg of DNA. The inhibitory effect is expressed in percentage relative to the controls.\nIn order to avoid any possible error due to the counting by optical microscopy, the DNA was assayed by a fluorimetric method according to the procedure described by Brunk et al. (Analytical Biochem., 1979)."}}, "data": [{"substance": "[(DL) Lip] His - D.homoPhe - Arg - Trp - NH2 [PIV]", "values": [{"measurement": "mean decreases in TNF-α", "setting": "TNF-α; 50 μg/ml, five studies", "result": 37, "unit": "%"}, {"measurement": "mean decreases in TNF-α", "setting": "TNF-α; 125 μg/ml, five studies", "result": 40, "unit": "%"}, {"measurement": "mean decreases in TNF-α", "setting": "TNF-α; 200 μg/ml, five studies", "result": 46, "unit": "%"}, {"measurement": "mean decreases in TNF-α", "setting": "TNF-α; all dosages, all the five studies", "result": "~40", "unit": "%"}, {"measurement": "immunosuppressive activity against Tumor Necrosis Factor-α", "setting": "TNF-α; complementary study reported in Example 8", "result": -40, "unit": "%"}, {"measurement": "% inhibition (PGE2)", "setting": "[1]; 10^-4 M", "result": 60, "unit": "%"}, {"measurement": "PGE2", "setting": "[1]; 10^-4 M", "result": "2964 ± 184 pg/mg of DNA"}, {"measurement": "% inhibition (PGE2)", "setting": "[1]; 10^-5 M", "result": 38, "unit": "%"}, {"measurement": "PGE2", "setting": "[1]; 10^-5 M", "result": "4580 ± 230 pg/mg of DNA"}, {"measurement": "% inhibition (PGE2)", "setting": "[1]; 10^-6 M", "result": 34, "unit": "%"}, {"measurement": "PGE2", "setting": "[1]; 10^-6 M", "result": "4900 ± 340 pg/mg of DNA"}, {"measurement": "% inhibition (PGE2)", "setting": "[1]; 10^-7 M", "result": 17, "unit": "%"}, {"measurement": "PGE2", "setting": "[1]; 10^-7 M", "result": "6150 ± 365 pg/mg of DNA"}, {"measurement": "% inhibition (PGE2)", "setting": "[1]; 10^-8 M", "result": 17, "unit": "%"}, {"measurement": "PGE2", "setting": "[1]; 10^-8 M", "result": "6142 ± 255 pg/mg of DNA"}, {"measurement": "% inhibition (PGE2)", "setting": "[1]; 10^-9 M", "result": 32, "unit": "%"}, {"measurement": "PGE2", "setting": "[1]; 10^-9 M", "result": "5047 ± 279 pg/mg of DNA"}, {"measurement": "inhibitory action on IL1-stimulated PGE2 production (in words)", "setting": "[1]; overall", "result": "possess an inhibitory power"}]}]}
